As usually defined, the Ki is a dissociation constant, usually derived from enzyme kinetics or from competition with a known ligand. By inhibition is commonly meant the drop in the measured response relative to a control, in per cent.

Molecules are shown by their SMILES.

The target of test [1] is T1, Neuronal acetylcholine receptor; alpha4/beta2 (Homo sapiens, UniProt P17787+P43681). Put plainly: Displacement of [3H]nicotine from Homo sapiens (human) alpha4beta2 nicotinic acetylcholine receptor expressed in Homo sapiens (human) SH-EP1 cells after 2.5 min by scintillation counting. The test is classed as cell-based. For orientation: Loss of bound radioactivity is the signal in a displacement assay; it reports binding, not function.
T1 sequence (P17787 whole entry): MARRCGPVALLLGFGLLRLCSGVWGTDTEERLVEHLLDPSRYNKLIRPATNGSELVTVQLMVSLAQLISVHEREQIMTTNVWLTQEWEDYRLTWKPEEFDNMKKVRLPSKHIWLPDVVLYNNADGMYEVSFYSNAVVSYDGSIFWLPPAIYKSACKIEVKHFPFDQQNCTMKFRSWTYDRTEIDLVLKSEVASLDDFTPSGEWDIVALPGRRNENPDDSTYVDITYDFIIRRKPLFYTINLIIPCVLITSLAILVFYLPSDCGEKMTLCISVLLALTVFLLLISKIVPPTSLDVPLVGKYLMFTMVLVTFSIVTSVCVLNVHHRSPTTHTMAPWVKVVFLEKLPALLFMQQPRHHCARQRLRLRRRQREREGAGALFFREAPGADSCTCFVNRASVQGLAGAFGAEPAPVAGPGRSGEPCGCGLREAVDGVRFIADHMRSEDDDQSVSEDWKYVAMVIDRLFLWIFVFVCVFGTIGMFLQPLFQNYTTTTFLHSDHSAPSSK
T1 sequence (P43681 whole entry): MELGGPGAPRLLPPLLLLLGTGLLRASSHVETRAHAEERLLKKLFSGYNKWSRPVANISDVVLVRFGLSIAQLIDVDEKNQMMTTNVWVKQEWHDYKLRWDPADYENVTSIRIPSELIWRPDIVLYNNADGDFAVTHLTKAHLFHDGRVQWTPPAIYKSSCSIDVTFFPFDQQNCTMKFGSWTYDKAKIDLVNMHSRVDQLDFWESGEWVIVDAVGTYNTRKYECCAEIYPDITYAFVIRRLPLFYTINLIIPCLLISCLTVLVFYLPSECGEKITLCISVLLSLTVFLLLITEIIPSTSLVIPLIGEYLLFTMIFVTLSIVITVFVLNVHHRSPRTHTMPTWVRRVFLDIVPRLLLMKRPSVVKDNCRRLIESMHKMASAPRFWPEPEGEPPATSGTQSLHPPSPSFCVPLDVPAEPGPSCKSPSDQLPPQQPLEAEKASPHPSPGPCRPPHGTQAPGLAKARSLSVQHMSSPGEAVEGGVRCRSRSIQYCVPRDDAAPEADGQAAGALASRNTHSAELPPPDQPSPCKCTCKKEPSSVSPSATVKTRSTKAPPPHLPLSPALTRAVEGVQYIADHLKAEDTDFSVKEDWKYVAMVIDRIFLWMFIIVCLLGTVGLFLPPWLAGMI

Test [2] concerns the target Neuronal acetylcholine receptor; alpha4/beta2 (Rattus norvegicus) (UniProt P09483+P12390). Put plainly: Displacement of [3H]cytisine from alpha4beta2 nicotinic acetylcholine receptor in Rattus norvegicus (rat) cerebral cortex at 10 uM after 75 min by scintillation counting. In kind it is tissue-based.
Test [3] has as its target T1, Neuronal acetylcholine receptor; alpha4/beta2. Put plainly: Inhibition of alpha4beta2 nicotinic acetylcholine receptor (unknown origin). The test is classed as protein-complex assay.

With `CN(C)CCOc1cccnc1`, the Ki in test [1] (read-out: Ki) was found to be 300 nM. This compound showed an inhibition in test [2] of 95%.

Compound `CC(C)N(CCOc1cccc([N+](=O)[O-])c1)C(C)C` displayed an inhibition in test [2] of 0%.

`CN(C)CCOc1cccc(O)c1`: in test [1] (read-out: Ki), the Ki amounted to 360 nM.

`CC(C)N(CCOc1cccc(O)c1)C(C)C` had an inhibition in test [2] of 0%.

The compound `O=[N+]([O-])c1cccc(OC[C@@H]2CC3CCN2CC3)c1` gave a Ki in test [3] of 734 nM.

On to `CC(C)N(CCOc1cccnc1)C(C)C`, for which the values for the inhibition result in test [1] and in test [2] were “Dose-dependent effect” and 64%, respectively. The Ki in test [1] (read-out: Ki) amounted to 11200 nM.

With `Oc1cccc(OC[C@@H]2CC3CCN2CC3)c1`, in test [3], affinity was put at a Ki of 4 nM.

Compound `c1ccc(N(CCOc2cccnc2)c2ccccc2)cc1` displayed an inhibition in test [2] of 0%.

`O=[N+]([O-])c1cccc(OCCN(c2ccccc2)c2ccccc2)c1` came in with an inhibition in test [2] of 0%.

Consider `Oc1cccc(OCCN(c2ccccc2)c2ccccc2)c1`, for which, in test [2], the inhibition stood at 0%.

On to `CCCN(CCC)CCOc1cccc([N+](=O)[O-])c1`, for which the Ki entry in test [1] (sh-ep1) is recorded as “Not Active”. Further, the inhibition in test [2] stood at 21%.

`Cc1c(O)cccc1OCCN(c1ccccc1)c1ccccc1` showed an inhibition in test [2] of 0%.

Regarding `CN(C)CCOc1cncc(Cl)c1`, the Ki in test [1] (read-out: Ki) was determined as 450 nM. Further, the inhibition in test [2] was 84%.

With `CN(C)CCOc1cccc([N+](=O)[O-])c1`, the inhibitory constant (Ki) in test [1] (read-out: Ki) was found to be 3390 nM. The compound further yielded an inhibition in test [2] of 33%.

The record behind these values is ChEMBL document CHEMBL3045372, “Biososteric Replacement in the Design and Synthesis of Ligands for Nicotinic Acetylcholine Receptors” (Med Chem Res, 2005).
